≈ marks a conversion by molar mass, not a printed value. Each block holds one compound with its values, some of them ahead of it.
Tests used:
Adenosine receptor A2a [1] = biological target: T1, Adenosine receptor A2a (Homo sapiens, UniProt P29274); experiment: Antagonist activity at human adenosine A2A receptor expressed in HEK293 cell membranes assessed as inhibition of […]-induced [35S]GTPgammaS binding preincubated for 10 mins followed by […] addition by TopCount scintillation counting method; type: functional
T1 sequence (P29274 whole entry): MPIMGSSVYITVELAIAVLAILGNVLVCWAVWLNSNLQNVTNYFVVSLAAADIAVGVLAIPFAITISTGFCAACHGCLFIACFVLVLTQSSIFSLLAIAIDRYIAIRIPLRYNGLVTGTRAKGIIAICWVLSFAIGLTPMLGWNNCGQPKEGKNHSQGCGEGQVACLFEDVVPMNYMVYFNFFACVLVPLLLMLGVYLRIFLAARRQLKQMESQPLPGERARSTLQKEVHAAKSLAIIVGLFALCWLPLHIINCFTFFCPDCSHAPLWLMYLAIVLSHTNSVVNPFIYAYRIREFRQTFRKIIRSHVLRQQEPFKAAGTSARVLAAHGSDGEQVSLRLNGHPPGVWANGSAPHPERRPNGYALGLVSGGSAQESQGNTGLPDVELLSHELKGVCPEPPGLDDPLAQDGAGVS

Adenosine receptor A2a [2] = biological target: T1, Adenosine receptor A2a; experiment: Displacement of [3H]-ZM241385 from human adenosine A2A receptor expressed in CHO cell membranes after 1 hr by TopCount microplate scintillation counting method
Adenosine receptor A2a [3] = biological target: T1, Adenosine receptor A2a; experiment: Antagonist activity at adenosine A2A receptor (unknown origin)
[4] = Protein binding in human plasma at 10 uM after 4 hrs
in vitro = details: human
Description: Intrinsic clearance in human liver microsomes at 0.1 uM

SH-SY5Y [5] = experiment: Cytotoxicity against human SH-SY5Y cells assessed as cell death at 10 uM after 72 hrs by MTT assay relative to control; type: cell-based
physchem = details: PBS, pH 7.4
[6] = Apparent permeability from apical to basolateral side in human Caco2 cells at 10 uM after 40 mins; details: Caco-2
[7] = Half life in human liver microsomes at 0.1 uM
[8] = Apparent permeability from basolateral to apical side in human Caco2 cells at 10 uM after 40 mins; details: Caco-2
[9] = biological target: T2, Adenosine receptor A2b (Homo sapiens) (UniProt P29275); experiment: Displacement of [3H]CPX from human adenosine A2B receptor expressed in HEK293 cell membranes at 10 uM relative to control
T2 sequence (whole entry): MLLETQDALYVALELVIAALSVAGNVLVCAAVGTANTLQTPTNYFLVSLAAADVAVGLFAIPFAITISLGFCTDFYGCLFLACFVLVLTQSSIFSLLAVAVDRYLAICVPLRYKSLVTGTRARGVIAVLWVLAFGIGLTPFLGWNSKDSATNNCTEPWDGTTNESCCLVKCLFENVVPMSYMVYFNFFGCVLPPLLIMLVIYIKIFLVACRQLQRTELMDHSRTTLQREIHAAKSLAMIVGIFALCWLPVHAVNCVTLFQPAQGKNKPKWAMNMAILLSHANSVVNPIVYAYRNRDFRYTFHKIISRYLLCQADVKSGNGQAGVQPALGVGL

Adenosine receptor A1 = biological target: T3, Adenosine receptor A1 (Homo sapiens, UniProt P30542); experiment: Displacement of [3H]DPCPX from human adenosine A1 receptor expressed in CHO cell membranes
T3 sequence (P30542 whole entry): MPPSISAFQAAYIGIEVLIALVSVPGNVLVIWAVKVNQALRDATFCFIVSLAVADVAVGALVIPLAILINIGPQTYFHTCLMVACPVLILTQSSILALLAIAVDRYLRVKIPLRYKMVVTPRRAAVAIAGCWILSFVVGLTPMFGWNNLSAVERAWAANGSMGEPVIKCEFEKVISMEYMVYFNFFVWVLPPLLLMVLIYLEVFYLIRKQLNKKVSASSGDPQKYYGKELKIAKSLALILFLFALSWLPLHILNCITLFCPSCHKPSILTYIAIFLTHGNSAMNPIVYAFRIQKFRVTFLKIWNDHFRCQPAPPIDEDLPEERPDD

SH-SY5Y [10] = experiment: Cytotoxicity against human SH-SY5Y cells assessed as cell death after 72 hrs by MTT assay; type: cell-based
[11] = biological target: T4, Adenosine receptor A3 (Homo sapiens) (UniProt P0DMS8); experiment: Displacement of [125I]ABMECA from human adenosine A3 receptor expressed in HEK293 cell membranes at 10 uM relative to control
T4 sequence (whole entry): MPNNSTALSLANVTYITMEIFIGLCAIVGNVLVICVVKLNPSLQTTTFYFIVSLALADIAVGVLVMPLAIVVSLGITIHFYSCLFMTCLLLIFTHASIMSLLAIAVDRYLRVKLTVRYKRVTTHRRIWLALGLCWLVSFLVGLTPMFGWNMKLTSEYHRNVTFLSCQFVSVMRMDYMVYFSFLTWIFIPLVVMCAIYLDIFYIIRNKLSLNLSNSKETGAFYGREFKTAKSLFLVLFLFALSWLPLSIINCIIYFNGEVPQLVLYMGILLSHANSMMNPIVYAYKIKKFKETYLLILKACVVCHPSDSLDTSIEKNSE

Adenosine receptor A2a [12] = biological target: T1, Adenosine receptor A2a; experiment: Displacement of [3H]-ZM241385 from human adenosine A2A receptor expressed in HEK293 cell membranes after 1 hr by scintillation counting method

IC50 (Adenosine receptor A2a [1]): 0.486 µM | Ki (Adenosine receptor A2a [2]): 0.21 µM
Compound: O=C(CN1CCCCC1)Nc1cc(-c2ccco2)c2oc(-c3ccco3)nc2c1

Ki (Adenosine receptor A2a [2]): > 10 µM
Compound: Nc1cc(N2CCOCC2)c2oc(-c3ccco3)nc2c1

Ki (Adenosine receptor A2a [2]): 0.071 µM
Compound: Nc1cc(-c2cccs2)c2oc(-c3ccco3)nc2c1

Ki (Adenosine receptor A2a [2]): 0.438 µM
Compound: Nc1cc(-c2ccc(F)cc2)c2oc(-c3ccco3)nc2c1

IC50 (Adenosine receptor A2a [1]): 0.25 µM | Ki (Adenosine receptor A2a [2]): 0.48 µM
Compound: Nc1cc(NC(=O)CN2CCCCC2)cc2nc(-c3ccco3)oc12

Ki (Adenosine receptor A2a [3]): 0.0005 µM
Compound: COCCOc1ccc(N2CCN(CCn3ncc4c3nc(N)n3nc(-c5ccco5)nc43)CC2)cc1 [PRELADENANT]

Ki (Adenosine receptor A2a [2]): 0.135 µM
Compound: Nc1cc(-c2ccccn2)c2oc(-c3ccco3)nc2c1

Ki (Adenosine receptor A2a [2]): > 10 µM
Compound: Nc1cc(NC(=O)CN2CCCCC2)c2oc(-c3ccco3)nc2c1

fraction unbound at 4 h, 10 µM [4]: 0.001 | microsomal CLint at 0.1 µM (in vitro; liver microsomes): < 115 µL/min/mg | Ki (Adenosine receptor A2a [2]): 0.03 µM | solubility at 24 h (physchem): 8 µM (≈ 3.63 µg/mL) | Papp A→B at 40 min, 10 µM [6]: 2 nm/s | half-life at 0.1 µM ([7]; liver microsomes): > 1 h
Compound: O=C(CCN1CCc2ccccc2C1)Nc1cc(-c2ccco2)c2oc(-c3ccco3)nc2c1
Activity (SH-SY5Y [5]): 37%

Ki (Adenosine receptor A2a [2]): > 10 µM
Compound: Nc1cc(-c2ccc(C(F)(F)F)cc2)c2oc(-c3ccco3)nc2c1

Papp B→A at 40 min, 10 µM [8]: 370 nm/s | IC50 (Adenosine receptor A2a [1]): 0.0706 µM | fraction unbound at 4 h, 10 µM [4]: 0.1 | microsomal CLint at 0.1 µM (in vitro; liver microsomes): < 115 µL/min/mg | Ki (Adenosine receptor A2a [2]): 0.04 µM | solubility at 24 h (physchem): 31 µM (≈ 8.25 µg/mL) | Papp A→B at 40 min, 10 µM [6]: 770 nm/s | inhibition [9]: 94% | Ki (Adenosine receptor A1): 0.0077 µM | half-life at 0.1 µM ([7]; liver microsomes): > 1 h | inhibition [11]: 90%
Compound: Nc1cc(-c2ccco2)c2oc(-c3ccco3)nc2c1
IC50 (SH-SY5Y [10]): 40 µM

Ki (Adenosine receptor A2a [2]): 0.09 µM
Compound: COc1ccc(-c2cc(N)cc3nc(-c4ccco4)oc23)cc1OC

Ki (Adenosine receptor A2a [2]): > 10 µM
Compound: Cc1ccc(-c2cc(N)cc3nc(-c4ccco4)oc23)cc1

Ki (Adenosine receptor A2a [2]): 0.202 µM
Compound: Nc1cc(-c2ccccc2)c2oc(-c3ccco3)nc2c1

Ki (Adenosine receptor A2a [2]): 0.098 µM
Compound: O=C(CCCN1CCCCC1)Nc1cc(-c2ccco2)c2oc(-c3ccco3)nc2c1

Papp B→A at 40 min, 10 µM [8]: 16 nm/s | fraction unbound at 4 h, 10 µM [4]: 0.02 | microsomal CLint at 0.1 µM (in vitro; microsomes): < 115 µL/min/mg | Ki (Adenosine receptor A2a [2]): 0.09 µM | solubility at 24 h (physchem): 173 µM (≈ 70.5 µg/mL) | Papp A→B at 40 min, 10 µM [6]: 110 nm/s | half-life at 0.1 µM ([7]; microsomes): > 1 h
Compound: O=C(CCN1CCOCC1)Nc1cc(-c2ccco2)c2oc(-c3ccco3)nc2c1
IC50 (SH-SY5Y [10]): 77 µM

Ki (Adenosine receptor A2a [2]): > 10 µM
Compound: COc1ccc(-c2cc(NC(=O)CCN3CCc4ccccc4C3)cc3nc(-c4ccco4)oc23)cc1OC

Ki (Adenosine receptor A2a [2]): 1 µM | Ki (Adenosine receptor A2a [12]): 1 µM
Compound: O=C(CN1CCCCC1)Nc1ccc2oc(-c3ccco3)nc2c1
Activity (SH-SY5Y [5]): 0%

Papp B→A at 40 min, 10 µM [8]: 12 nm/s | fraction unbound at 4 h, 10 µM [4]: 0.02 | microsomal CLint at 0.1 µM (in vitro; liver microsomes): 172 µL/min/mg | Ki (Adenosine receptor A2a [2]): 0.081 µM | solubility at 24 h (physchem): 165 µM (≈ 66.9 µg/mL) | Papp A→B at 40 min, 10 µM [6]: 23 nm/s | half-life at 0.1 µM ([7]; liver microsomes): 0.683 h
Compound: O=C(CCN1CCCCC1)Nc1cc(-c2ccco2)c2oc(-c3ccco3)nc2c1
IC50 (SH-SY5Y [10]): 9 µM

Ki (Adenosine receptor A2a [2]): 10 µM | Ki (Adenosine receptor A2a [12]): 10 µM
Compound: Nc1ccc2oc(-c3ccco3)nc2c1

Ki (Adenosine receptor A2a [2]): > 10 µM
Compound: CCOCCOc1ccc(N2CCN(CCC(=O)Nc3cc(-c4ccco4)c4oc(-c5ccco5)nc4c3)CC2)cc1

From ChEMBL document CHEMBL4251607, “Antagonists of the adenosine A2A receptor based on a 2-arylbenzoxazole scaffold: Investigation of the C5- and C7-positions to enhance affinity” (Eur J Med Chem, 2018)
